Measurements published in ChEMBL document CHEMBL1139328, “4-Fluoro-N-butylphenylacetamide (H6) inhibits cell growth via cell-cycle arrest and apoptosis in human cervical cancer cells” (2009).
The source made the active and inactive calls. The rule behind the calls is not given here.

Tests used:
[1] = tested on: Ca-Ski; assay: Induction of apoptosis in human CaSki cells at 1 mM after 8 hrs by TUNEL/DAPI double staining; type: functional
[2] = tested on: Ca-Ski; assay: Cell cycle arrest in human CaSki cells assessed as accumulation at S phase after 8 hrs by flow cytometry; type: functional
[3] = tested on: Ca-Ski; assay: Increase in p53 protein level in human CaSki cells at 1 mM up to 48 hrs by Western blot; type: functional, cell-based
[4] = tested on: Ca-Ski; assay: Decrease in CDK1 protein expression in human CaSki cells at 1 mM by Western blot; type: functional, cell-based
[5] = tested on: Ca-Ski; assay: Decrease in CDK2 protein expression in human CaSki cells at 1 mM by Western blot; type: functional, cell-based
[6] = tested on: Ca-Ski; assay: Cell cycle arrest in human CaSki cells assessed as accumulation at G0/G1 phase after 48 hrs by flow cytometry; type: functional
[7] = tested on: Ca-Ski; assay: Increase in p53 protein level in human CaSki cells at 1 mM after 24 hrs by Western blot; type: functional, cell-based
[8] = tested on: HeLa; assay: Induction of apoptosis in human HeLa cells assessed as chromatin condensation at 1 mM after 48 hrs by TUNEL/DAPI double staining; type: functional, cell-based
[9] = tested on: HeLa; assay: Cell cycle arrest in human HeLa cells assessed as accumulation at G0/G1 phase after 8 hrs by flow cytometry; type: functional
[10] = tested on: HeLa; assay: Increase in Bax protein expression in human HeLa cells at 1 mM by Western blot; type: functional, cell-based
[11] = tested on: Ca-Ski; assay: Induction of apoptosis in human CaSki cells assessed as nuclear DNA fragmentation at 1 mM after 48 hrs by TUNEL/DAPI double staining; type: functional, cell-based
[12] = tested on: Ca-Ski; assay: Cell cycle arrest in human CaSki cells assessed as accumulation at G0/G1 phase after 8 hrs by flow cytometry; type: functional
[13] = tested on: HeLa; assay: Cell cycle arrest in human HeLa cells assessed as accumulation at G2/M phase after 8 hrs by flow cytometry; type: functional
[14] = tested on: Ca-Ski; assay: Induction of apoptosis in human CaSki cells assessed as proteolytic activation of caspase 9 at 1 mM by SDS-PAGE; type: functional, cell-based
[15] = tested on: Ca-Ski; assay: Decrease in cyclin A protein expression in human CaSki cells at 1 mM by Western blot; type: functional, cell-based
[16] = tested on: Ca-Ski; assay: Cell cycle arrest in human CaSki cells assessed as accumulation at G2/M phase after 48 hrs by flow cytometry; type: functional
[17] = tested on: HeLa; assay: Cell cycle arrest in human HeLa cells assessed as accumulation at S phase after 48 hrs by flow cytometry; type: functional
[18] = tested on: HeLa; assay: Induction of apoptosis in human HeLa cells assessed as caspase 3 activation by fluorogenic substrate based assay after 24 hrs; type: functional, cell-based
[19] = tested on: HeLa; assay: Effect on Bcl-Xl protein expression in human HeLa cells at 1 mM by Western blot; type: functional, cell-based
[20] = tested on: Ca-Ski; assay: Decrease in Bcl2 protein expression in human CaSki cells at 1 mM by Western blot; type: functional, cell-based
[21] = tested on: HeLa; assay: Cell cycle arrest in human HeLa cells assessed as accumulation at S phase after 8 hrs by flow cytometry; type: functional
[22] = tested on: Ca-Ski; assay: Induction of apoptosis in human CaSki cells assessed as caspase 9 activation by fluorogenic substrate based assay after 48 hrs; type: functional, cell-based
[23] = tested on: HeLa; assay: Cell cycle arrest in human HeLa cells assessed as accumulation at G2/M phase after 24 hrs by flow cytometry; type: functional
[24] = tested on: HeLa; assay: Induction of apoptosis in human HeLa cells at 1 mM after 8 hrs by TUNEL/DAPI double staining; type: functional
[25] = tested on: Ca-Ski; assay: Induction of apoptosis in human CaSki cells assessed as chromatin condensation at 1 mM after 48 hrs by TUNEL/DAPI double staining; type: functional, cell-based
[26] = tested on: HeLa; assay: Cell cycle arrest in human HeLa cells assessed as accumulation at G2/M phase after 48 hrs by flow cytometry; type: functional
[27] = tested on: HeLa; assay: Increase in p53 protein level in human HeLa cells at 1 mM after 24 hrs by Western blot; type: functional, cell-based
[28] = tested on: HeLa; assay: Cell cycle arrest in human HeLa cells assessed as accumulation at G0/G1 phase after 24 hrs by flow cytometry; type: functional
[29] = tested on: HeLa; assay: Induction of apoptosis in human HeLa cells assessed as nuclear DNA fragmentation at 1 mM after 48 hrs by TUNEL/DAPI double staining; type: functional, cell-based
[30] = tested on: HeLa; assay: Decrease in CDK2 protein expression in human HeLa cells at 1 mM by Western blot; type: functional, cell-based
[31] = tested on: Ca-Ski; assay: Induction of apoptosis in human CaSki cells assessed as caspase 3 activation by fluorogenic substrate based assay after 24 hrs; type: functional, cell-based
[32] = tested on: HeLa; assay: Induction of apoptosis in human HeLa cells at 1 mM after 48 hrs by TUNEL/DAPI double staining; type: functional
[33] = tested on: HeLa; assay: Decrease in Bcl2 protein expression in human HeLa cells at 1 mM by Western blot; type: functional, cell-based
[34] = tested on: Ca-Ski; assay: Induction of apoptosis in human CaSki cells at 1 mM after 48 hrs by TUNEL/DAPI double staining; type: functional
[35] = tested on: HeLa; assay: Decrease in cyclin B protein expression in human HeLa cells at 1 mM by Western blot; type: functional, cell-based
[36] = tested on: Ca-Ski; assay: Cell cycle arrest in human CaSki cells assessed as accumulation at G2/M phase after 8 hrs by flow cytometry; type: functional
[37] = tested on: HeLa; assay: Induction of apoptosis in human HeLa cells assessed as caspase 9 activation by fluorogenic substrate based assay after 48 hrs; type: functional, cell-based
[38] = tested on: HeLa; assay: Cytotoxicity against human HeLa cells by trypan blue exclusion method; type: functional, cell-based
[39] = tested on: HeLa; assay: Induction of apoptosis in human HeLa cells at 1 mM after 24 hrs by TUNEL/DAPI double staining; type: functional
[40] = tested on: Ca-Ski; assay: Decrease in cyclin B protein expression in human CaSki cells at 1 mM by Western blot; type: functional, cell-based
[41] = tested on: Ca-Ski; assay: Cytotoxicity against human CaSki cells by trypan blue exclusion method; type: functional, cell-based; settings: TDE = time-dependent effect
[42] = tested on: HeLa; assay: Induction of cytosolic cytochrome c accumulation in human HeLa cells at 1 mM by SDS-PAGE; type: functional, cell-based; settings: TDE = time-dependent effect
[43] = tested on: Ca-Ski; assay: Induction of cytosolic cytochrome c accumulation in human CaSki cells at 1 mM by SDS-PAGE; type: functional, cell-based; settings: TDE = time-dependent effect
[44] = tested on: Ca-Ski; assay: Cell cycle arrest in human CaSki cells assessed as accumulation at S phase after 48 hrs by flow cytometry; type: functional
[45] = tested on: Ca-Ski; assay: Increase in Bax protein expression in human CaSki cells at 1 mM by Western blot; type: functional, cell-based
[46] = tested on: Ca-Ski; assay: Induction of apoptosis in human CaSki cells assessed as proteolytic activation of caspase 3 at 1 mM by SDS-PAGE; type: functional, cell-based
[47] = tested on: HeLa; assay: Induction of apoptosis in human HeLa cells assessed as proteolytic activation of caspase 3 at 1 mM by SDS-PAGE; type: functional, cell-based
[48] = tested on: HeLa; assay: Induction of apoptosis in human HeLa cells assessed as proteolytic activation of caspase 9 at 1 mM by SDS-PAGE; type: functional, cell-based
[49] = tested on: Ca-Ski; assay: Induction of apoptosis in human CaSki cells at 1 mM after 24 hrs by TUNEL/DAPI double staining; type: functional
[50] = tested on: HeLa; assay: Decrease in CDK1 protein expression in human HeLa cells at 1 mM by Western blot; type: functional, cell-based
[51] = tested on: Ca-Ski; assay: Cell cycle arrest in human CaSki cells assessed as accumulation at G0/G1 phase after 24 hrs by flow cytometry; type: functional
[52] = tested on: Ca-Ski; assay: Cell cycle arrest in human CaSki cells assessed as accumulation at S phase after 24 hrs by flow cytometry; type: functional
[53] = tested on: Ca-Ski; assay: Cell cycle arrest in human CaSki cells assessed as accumulation at G2/M phase after 24 hrs by flow cytometry; type: functional
[54] = tested on: HeLa; assay: Cell cycle arrest in human HeLa cells assessed as accumulation at G0/G1 phase after 48 hrs by flow cytometry; type: functional
[55] = tested on: HeLa; assay: Cell cycle arrest in human HeLa cells assessed as accumulation at S phase after 24 hrs by flow cytometry; type: functional
[56] = tested on: Ca-Ski; assay: Effect on Bcl-Xl protein expression in human CaSki cells at 1 mM by Western blot; type: functional, cell-based
[57] = tested on: HeLa; assay: Decrease in cyclin A protein expression in human HeLa cells at 1 mM by Western blot; type: functional, cell-based

Structure (SMILES): CCCCNC(=O)Cc1ccc(F)cc1
- Activity [1]: 5.6%
- Activity [2]: 27.7%
- Activity [3]: Active
- Activity [4]: Active
- Activity [5]: Active
- Activity [6]: 51.5%
- Activity [7]: Active
- Activity [8]: Active
- Activity [9]: 31.2%
- Activity [10]: Active
- Activity [11]: Active
- Activity [12]: 53.6%
- Activity [13]: 22.1%
- Activity [14]: Active
- Activity [15]: Active
- Activity [16]: 28.6%
- Activity [17]: 22.7%
- Activity [18]: Active
- Activity [19]: inactive
- Activity [20]: Active
- Activity [21]: 46.9%
- Activity [22]: Active
- Activity [23]: 28.5%
- Activity [24]: 1.9%
- Activity [25]: Active
- Activity [26]: 46.7%
- Activity [27]: Active
- Activity [28]: 42.6%
- Activity [29]: Active
- Activity [30]: Active
- Activity [31]: Active
- Activity [32]: 28.2%
- Activity [33]: Active
- Activity [34]: 13.2%
- Activity [35]: Active
- Activity [36]: 18.6%
- Activity [37]: Active
- Activity [38]: Dose-dependent effect
- Activity [39]: 23.6%
- Activity [40]: Active
- Activity [41]: tde
- Activity [42]: tde
- Activity [43]: tde
- Activity [44]: 19.9%
- Activity [45]: Active
- Activity [46]: Active
- Activity [47]: Active
- Activity [48]: Active
- Activity [49]: 6%
- Activity [50]: Active
- Activity [51]: 52.7%
- Activity [52]: 21%
- Activity [53]: 26.5%
- Activity [54]: 30.6%
- Activity [55]: 28.9%
- Activity [56]: inactive
- Activity [57]: Active
